Laboratory results reported in paper PMC11648822, “Lactam Truncation Yields a Dihydroquinazolinone Scaffold with Potent Antimalarial Activity that Targets PfATP4” (Chemmedchem, 2024).
pEC50: −log10 of the molar value. Where two headings read alike, the source gives them in different places.

What was measured:
[1] = tested on: P. falciparum CAM3.1; assay: Multidrug-resistant parasite viability assay (SYBR green), CAM3.1; assay type: cell-based; conditions: Plasmodium falciparum, 72 h, read-out: multidrug resistant P. falciparum strains EC50 (SD) CAM3.1
Method: (§1) These assays were performed as previously described.[16] P. falciparum 3D7 parasites and resistant lines Dd2, W2mef, 7G8, and artemisinin‐resistant Cambodian isolate (Cam3.I (2539T)), and P. knowlesi YH1, were cultured in human O^+ erythrocytes (RBCs) (Australian Red Cross Blood Service), in RPMI‐HEPES culture medium (pH 7.4, 50 μg/mL hypoxanthine, 25 mM NaHCO3, 20 μg/mL gentamicin, 0.5 % Albumax II (GibcoBRL)) (Thermo Fisher Scientific) and maintained in an atmosphere of 1 % O2, 4 % CO2 and 95 % N2. Parasites were synchronised with 5 % (w/v) sorbitol (Sigma‐Aldrich) treatments for ring stages. Growth assays for measuring drug inhibition of in‐cycle, ring to schizont stage parasites have been described previously. Parasites were grown in 1 % haematocrit, at 1 % and 2 % parasitaemia for P. falciparum and P. knowlesi respectively. […] Parasitaemia was measured using a SYBR DNA staining assay on a fluorometer.[33] After the incubation period, supernatants were removed and well contents were resuspended in PBS.

[2] = Human HepG2 cytotoxicity assay (Cell Titre Glo); assay type: cell-based; conditions: HepG2 cells, growth inhibition at 48 h, 4 replicate experiments, read-out: HepG2 CC50 (SD)
Excerpt: This assay uses Cell TitreGlo as a metabolic maker for human HepG2 cell growth and uses a protocol previously described.[32]

[3] = tested on: P. falciparum Dd2 strain with 2.8-fold amplification in PfATP4; assay: 'compound 49' resistant parasite viability assay (LDH), Dd2 2.8 CNV; assay type: cell-based; conditions: Plasmodium falciparum, DD2, 72 h, read-out: Dd2^2.8 CNV EC50 (SD)
Method: (§2) These assays were performed according to a previously described protocol.[16] Briefly, P. falciparum Dd2 strains treated with compound were incubated for 72 h at 37 °C. After incubating for 72 h, plates were frozen at −80 °C and then thawed at room temperature for at least 2 h. LDH activity, a surrogate for parasite growth was measured by the addition of the Malstst reagent mix, followed by incubation for 30 min and absorbance read using a ClarioStar Microplate reader at 650 nm. Values were normalized to DMSO control as a percentage and EC50 and dose response curves generated using GraphPad Prism.

[4] = tested on: P. falciparum Dd2; assay: P. falciparum viability assay (SYBR green), Dd2; assay type: cell-based; conditions: Plasmodium falciparum, DD2, 72 h, read-out: P. falciparum parental EC50 (SD) Dd2
Method: as §1

[5] = tested on: P. falciparum 7G8; assay: Multidrug-resistant parasite viability assay (SYBR green), 7G8; assay type: cell-based; conditions: Plasmodium falciparum, 7G8, 72 h, read-out: multidrug resistant P. falciparum strains EC50 (SD) 7G8
Method: as §1

[6] = tested on: P. falciparum Dd2 PfATP4^triple (I398F, P990R, D1247Y) strain; assay: PfATP4 drug resistant parasite viability assay (LDH), Dd2 triple; assay type: cell-based; conditions: Plasmodium falciparum, DD2, 72 h, read-out: Dd2^triple EC50 (SD)
Method: as §2

[7] = tested on: P. falciparum Dd2 parental strain; assay: PfATP4 drug resistant parasite viability assay (LDH), Dd2 parental; assay type: cell-based; conditions: Plasmodium falciparum, DD2, 72 h, read-out: Dd2^parental EC50 (SD)
Method: as §2

[8] = tested on: P. falciparum Dd2 PfATP4^D425E strain; assay: 'compound 49' resistant parasite viability assay (LDH), Dd2 D425E; assay type: cell-based; conditions: Plasmodium falciparum, DD2, 72 h, read-out: Dd2^D425E EC50 (SD)
Method: as §2

[9] = tested on: P. falciparum Dd2 PfATP4^G358S strain; assay: PfATP4 drug resistant parasite viability assay (LDH), Dd2 G358S; assay type: cell-based; conditions: Plasmodium falciparum, DD2, 72 h, read-out: Dd2^G358S EC50 (SD)
Method: as §2

[10] = tested on: P. falciparum (Pf) 3D7 parasites; assay: P. falciparum LDH viability assay; assay type: cell-based; conditions: Plasmodium falciparum, 3D7, 72 h, LDH activity at 72 h; mean and SD of 3 independent experiments
Excerpt: This assay is a platform assay conducted at the Walter and Eliza Hall Institute and uses a protocol previously decsribed.[30, 31]

[11] = tested on: P. falciparum 3D7 parasites; assay: P. falciparum viability assay (SYBR green), 3D7; assay type: cell-based; conditions: Plasmodium falciparum, 3D7; SYBR green, 72 h; read-out: P. falciparum parental EC50 (SD) 3D7
Method: (§3) These assays were performed as previously described.[16] […] Parasites were synchronised with 5 % (w/v) sorbitol (Sigma‐Aldrich) treatments for ring stages. […] Parasites were grown in 1 % haematocrit, at 1 % and 2 % parasitaemia for P. falciparum and P. knowlesi respectively. […] Parasitaemia was measured using a SYBR DNA staining assay on a fluorometer.[33] After the incubation period, supernatants were removed and well contents were resuspended in PBS.

[12] = tested on: P. falciparum Dd2 PfATP4^F156L strain; assay: 'compound 49' resistant parasite viability assay (LDH), Dd2 F156L; assay type: cell-based; conditions: Plasmodium falciparum, DD2, 72 h, read-out: Dd2^F156L EC50 (SD)
Method: as §2

[13] = tested on: P. knowlesi YH1 parasites; assay: P. knowlesi viability assay (SYBR green); assay type: cell-based; conditions: Plasmodium knowlesi, 48 h, read-out: P. knowlesi EC50 (SD) YH1
Method: as §3

[14] = tested on: P. falciparum W2^mef; assay: Multidrug-resistant parasite viability assay (SYBR green), W2mef; assay type: cell-based; conditions: Plasmodium falciparum, W2, 72 h, read-out: multidrug resistant P. falciparum strains EC50 (SD) W2^mef
Method: as §1

[15] = tested on: P. falciparum Dd2 PfATP4^triple (I398F, P990R, D1247Y) strain; parameters: method as in Ashton, Dans et al. 10; conditions: ref Ashton, Dans et al. 10; cited from earlier work
[16] = parameters: method as in PMID 39134060; conditions: 25 mg/kg oral dose, 4-day model; recrudescence detected after day 4; cited from earlier work
[17] = Figure 1; cited from earlier work
[18] = tested on: P. falciparum (Pf) 3D7 parasites; parameters: method as in PMID 36812492, PMID 39134060; conditions: Figure 1; cited from earlier work
[19] = tested on: P. falciparum Dd2 parental strain; parameters: method as in Ashton, Dans et al. 10; conditions: LDH at 72 h; ref Ashton, Dans et al. 10; cited from earlier work
[20] = tested on: P. falciparum Dd2 PfATP4^G358S strain; parameters: method as in Ashton, Dans et al. 10; conditions: ref Ashton, Dans et al. 10; cited from earlier work
[21] = tested on: P. berghei ANKA; assay: P. berghei 4-day mouse model; assay type: in vivo; conditions: 30 mg/kg p.o. q.d.
Method: In this model, mice are infected with P. berghei ANKA asexual blood stage parasites. Compounds are then administered by oral gavage at 20 mg/kg 2, 24, 48, and 72 hours after the parasite infection.
Each day, a fresh aliquot of the compound stock was diluted 1/10 in water for administration to mice. 8 week old female mice (Ozgene) on day 0 were infected with 2×10^7 P. berghei ANKA‐infected erythrocytes. […] 2 mice were also dosed with artesunate using the same regime at 30 mg/kg. The parasitemia of mice was assessed by visualizing Giemsa‐stained thin blood smears by microscopy and a minimum of 1000 RBCs were counted. To calculate the percent antimalarial activity the following formula was used: 100 ‐ (mean parasitemia treated day 4 post‐infection/mean parasitemia vehicle control day 4 post‐infection)×100. Mice were culled the day following the last oral gavage.
Briefly, ‘donor’ female Swiss mice were infected intraperitoneally (IP) with blood stage P. berghei parasites constitutively expressing GFP (P. berghei ANKA GFPcon 259cl2).[36] Three days later, groups of 3 ‘acceptor’ Swiss mice were infected intravenously with 1 x 10^7 parasitised red blood cells from the ‘donor mice’. […] Control mice were left untreated. Peripheral blood samples were taken 24 h after administration of the last dose, and parasitemia was measured by flow cytometry (proportion of GFP‐positive cells in 100,000 recorded events using Attune Nxt, ThermoFisher) and microscopic analysis of Giemsa‐stained blood smears. Parasitemia values were averages of 3 mice per group.

[22] = molecular target: T1, PfATP4 (membranes prepared from 3D7 parasites) (Plasmodium falciparum, UniProt A0A143ZZK9); assay: PfATP4 Na+ assay (membrane ATPase), 3D7 membranes; assay type: biochemical, P. falciparum; conditions: 50 nM; any of the conditions tested; negative control
T1 construct: The membranes were prepared from isolated trophozoite‐stage 3D7 parasites; endogenous in cells; host or cells: P. falciparum 3D7 trophozoites (membrane preparation)
Method: Figure 4 Dihydroquinazolinone analogs 14 and 36 (WJM062) inhibit Na^+‐ATPase activity in membranes prepared from isolated P. falciparum parasites, consistent with them being PfATP4 inhibitors. (A) The effects of dihydroquinazolinone compounds (2 μM), dihydroartemisinin (DHA; 50 nM; negative control) and 0.2 % v/v DMSO (solvent‐only control) on membrane ATPase activity under high‐[Na^+] conditions (152 mM Na^+) and low‐[Na^+] conditions (2 mM Na^+; stemming from the addition of 1 mM Na2ATP) in the presence and absence of the PfATP4 inhibitor cipargamin (50 nM). The membranes were prepared from isolated trophozoite‐stage 3D7 parasites. The Pi produced is expressed as a percentage of that measured in the 152 mM Na^+ Control. The data are from four independent experiments performed with different membrane preparations; the symbols show the data from individual experiments and the bars show the mean (+SEM). In individual experiments, the Pi produced in the 152 mM Na^+ Control varied from 66 to 96 nmol per mg (total) protein per min. A repeated measures ANOVA with a post hoc Tukey test was used to compare the (pre‐normalised) data for different compounds and conditions. For comparisons between different conditions for the same test compound (or for the Control), significant differences are shown with black asterisks. For comparisons between the Control and a compound under the same test condition, significant differences are shown with coloured asterisks (in this case, grey asterisks, as the only significant differences were between the control and the dihydroquinazolinone compounds in the 152 mM Na^+ condition). ***P<0.001. (B) Concentration‐dependence of the effects of dihydroquinazolinone compounds on PfATP4‐associated ATPase activity in membranes prepared from 3D7 parasites. The data are the mean (shown + or − SEM) obtained from four independent experiments performed with different membrane preparations, with the exception of the lowest and second‐lowest concentrations of the compounds, for which data are from two and three independent experiments, respectively. (C and D) Potency of dihydroquinazolinone compounds against PfATP4‐associated ATPase activity in membranes prepared from Dd2‐Polδ‐PfATP4^G358S parasites (open triangles) and their Dd2‐Polδ parents (closed triangles). The data are the mean (shown + or − SEM) from four (C) or three (D) independent experiments. In B−D, the Pi production measured in the low‐[Na^+] (2 mM) condition was subtracted from that measured in high‐[Na^+] (152 mM) in the presence of each of the different concentrations of dihydroquinazolinone compounds to calculate the PfATP4‐associated ATPase activity. The PfATP4‐associated ATPase activity is expressed as a percentage of that obtained for the high‐[Na^+] (152 mM) Control.
Membrane ATPase assays were performed using a PiColorLock Gold Phosphate Detection System (Innova Biosciences), essentially as described previously.[25] Membranes were prepared either from isolated 3D7 trophozoites or from isolated Dd2‐Polδ‐PfATP4^G358S [22] and Dd2‐Polδ trophozoites.[26]

T1 sequence (A0A143ZZK9 whole entry): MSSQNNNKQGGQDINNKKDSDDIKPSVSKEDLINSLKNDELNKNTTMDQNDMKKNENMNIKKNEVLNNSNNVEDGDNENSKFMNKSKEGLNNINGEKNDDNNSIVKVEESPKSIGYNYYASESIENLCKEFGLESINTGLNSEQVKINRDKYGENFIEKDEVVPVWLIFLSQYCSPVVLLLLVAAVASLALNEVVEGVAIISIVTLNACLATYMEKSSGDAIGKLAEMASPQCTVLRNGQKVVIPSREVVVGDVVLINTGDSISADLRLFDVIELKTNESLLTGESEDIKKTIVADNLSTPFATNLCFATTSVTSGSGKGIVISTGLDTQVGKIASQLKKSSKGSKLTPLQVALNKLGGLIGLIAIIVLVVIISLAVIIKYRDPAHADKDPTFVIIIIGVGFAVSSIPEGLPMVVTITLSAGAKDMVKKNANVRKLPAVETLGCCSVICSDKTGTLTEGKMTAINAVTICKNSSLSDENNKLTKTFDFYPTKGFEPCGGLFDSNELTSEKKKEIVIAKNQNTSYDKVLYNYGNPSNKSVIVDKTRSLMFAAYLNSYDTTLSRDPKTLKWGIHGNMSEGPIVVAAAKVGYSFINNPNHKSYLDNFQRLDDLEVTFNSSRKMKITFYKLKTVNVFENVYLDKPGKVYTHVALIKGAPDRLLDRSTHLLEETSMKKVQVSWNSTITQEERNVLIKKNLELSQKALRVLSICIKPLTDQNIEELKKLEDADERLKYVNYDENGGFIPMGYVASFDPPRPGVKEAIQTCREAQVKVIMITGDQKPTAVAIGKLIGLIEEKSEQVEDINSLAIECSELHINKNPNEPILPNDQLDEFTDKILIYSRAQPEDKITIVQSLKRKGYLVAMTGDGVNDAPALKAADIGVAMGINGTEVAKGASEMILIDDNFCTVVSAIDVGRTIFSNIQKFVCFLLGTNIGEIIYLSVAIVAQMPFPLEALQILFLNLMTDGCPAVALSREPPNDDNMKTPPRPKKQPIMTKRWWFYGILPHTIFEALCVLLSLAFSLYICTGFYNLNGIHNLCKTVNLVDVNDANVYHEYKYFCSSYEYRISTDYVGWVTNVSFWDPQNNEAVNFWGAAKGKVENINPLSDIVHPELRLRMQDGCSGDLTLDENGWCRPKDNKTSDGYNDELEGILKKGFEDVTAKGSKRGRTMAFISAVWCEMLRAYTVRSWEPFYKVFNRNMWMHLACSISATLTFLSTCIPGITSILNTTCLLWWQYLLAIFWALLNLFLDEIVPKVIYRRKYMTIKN

With `CN1C(=O)c2ccc(Cl)cc2NC1(C)C(=O)Nc1cccc(Cl)c1` (centres unmarked) [Compound 11, 7‐Chloro‐N‐(3‐chlorophenyl)‐2,3‐dimethyl‐4‐oxo‐1,2,3,4‐tetrahydroquinazoline‐2‐carboxamide] the pEC50 [1] was 7.89, the CC50 at 48 h [2] was greater than 40000 nM and the pEC50 [3] was 7.40. It also gave a pEC50 [4] of 7.77, a pEC50 [5] of 7.48 and a pEC50 [6] of 6.85. For the same compound, the pEC50 [7] was 7.68, the pEC50 [8] was 7.44 and the pEC50 [9] was 7.36. The pEC50 [10] was 7.74, the pEC50 [11] was 7.85 and the pEC50 [12] was 7.39. For the same compound, the pEC50 [13] was 7.19 and the pEC50 [14] was 8.05.
For `C[C@H]1Cc2c([nH]c3cc(Cl)c(F)cc23)[C@@]2(N1)C(=O)Nc1ccc(Cl)cc12` [KAE609, reference compound], the pEC50 [3] is given as 8.52, the pEC50 [15] is given as 8.05 and the pEC50 [8] is given as 8.70. The pEC50 [12] was 8.40.
For `CN1C(=O)c2c(F)cc(-c3cnn(C)c3)cc2N2C(=O)CCC12C(=O)Nc1cncc(Cl)c1` (centres unmarked) [S-WJM992 (5)], the effect on parasitemia [16] is listed as “cleared parasitemia”, the “Rat hepatocytes CLint” value [17] is listed as 14 μL/min/10^6 cells and the pEC50 [18] is listed as 8.10.
In the case of `N#Cc1cc(NC(=O)[C@H]2c3ccccc3C(=O)N(CC(F)(F)F)[C@@H]2c2cccnc2)ccc1F` [SJ733, reference compound], the pEC50 [19] is listed as 7.17, the pEC50 [3] is listed as 6.89 and the pEC50 [20] is listed as less than 4.96. It also gave a pEC50 [8] of 7.10 and a pEC50 [12] of 6.87.
In the case of `C[C@H]1[C@H](OC(=O)CCC(=O)O)O[C@@H]2O[C@@]3(C)CC[C@H]4[C@H](C)CC[C@@H]1[C@@]24OO3` [artesunate, reference compound], the “% parasitemia” value ([21]; day 4) was 0.66% and the “% reduction in parasitemia” value ([21]; day 4, versus control) was 96%.
With `C[C@H]1[C@@H](O)O[C@@H]2O[C@@]3(C)CC[C@H]4[C@H](C)CC[C@@H]1[C@@]24OO3` [dihydroartemisinin, reference compound] the “effect on membrane ATPase activity” value [22] was “no effect”.
